Where two headings read alike, the source gives them in different places.
Experiments:
[1] = biological target: T1, soluble DRB1*0401 molecules (DR4) (Homo sapiens, UniProt P01903+P01911, A100K/A169T/F76Y/I96L/K127E/L162R/M171V/N62H/P40V/Q125Y/R42H/S133A/S149N/S66Y/V115G/V209L/W38E); type: binding; parameters: key to DR4 binding: +++: high binding affinity; ++: moderate binding affinity; +: low binding affinity; −: no binding; key to Binding to DRB1 *0401: −: no binding/T cell response; +/−: weak binding/T cell response; +: intermediate binding/T cell response; ++: strong binding/T cell response
T1 construct: Soluble HLA class I A*0201 and HLA class II DRA1*0101/DRB1*0101/Ii, DRA1*0101/DRB1*0401/Ii and DRA1*0101/DRB1*0404/Ii molecules were expressed in SC-2 cells; made in house; host or cells: SC-2 cells

[2] = system: PBMC from CMV seropositive donors; type: cell-based, human; settings: for Frequency in screen (number of refinding/number of donors' expressing the respective HLA type): literature known class I epitopes
[3] = biological target: T1, soluble DRB1*0401 molecules (DR4); type: binding; parameters: key: −: no binding; +/−: weak binding; +: intermediate binding; ++: strong binding; settings: individual pp65 15mer, SDS-stability assay
[4] = system: HLA-DRB1*0401-transgenic mice splenocytes; type: in vivo, mouse; parameters: key to DRB1*0401 mice total SC (T cell response) / DRB1*0401 mice CD4+ (T cell response): −: no binding/T cell response; +/−: weak binding/T cell response; +: intermediate binding/T cell response; ++: strong binding/T cell response
[5] = biological target: T1, soluble DRB1*0401 molecules (DR4); type: binding; parameters: key: +++: high binding affinity; ++: moderate binding affinity; +: low binding affinity; −: no binding; settings: individual pp65 15mer, SDS-stability assay
[6] = direct binding of individual peptides, SDS-stability assay, compared with YAR and HA306-318
[7] = IFN-gamma ELISpot, enriched CD4+ fraction of splenocytes of HLA-DR4 transgenic mice vaccinated with the longer peptide, ex vivo re-stimulation
[8] = IFN-gamma ELISpot, total splenocytes of HLA-DR4 transgenic mice vaccinated with the longer peptide, ex vivo re-stimulation

AETPGCVAYIGISFLDQ [Peptide 1239]
DR4 binding [1, 6]: −

ARNLVPMVATVQGQN [Peptide 493]
Reactivity, induction of IFN-gamma secretion ([2]; donor 10736, single peptides, secondary screen (FIG. 9)): inducers of IFN-gamma secretion

ATKMQVIGDQYVKVY [Peptide 213]
Induction of IFN-gamma secretion in T cells / PBMC from CMV seropositive donors [2]: can induce functional, IFN-gamma secreting T cells in humans

DVYYTSAFVFPTKDV [Peptide 179]
Binding to DRB1*0401 [3]: + | DRB1*0401 mice CD4+ (T cell response) [4, 7]: + | DRB1*0401 mice total SC (T cell response) [4, 8]: + | Binding to DRB1 *0401 ([1]; soluble DRB1*0401 molecules): +

EFFWDANDIYRIFAE [Peptide 512]
Binding to DRB1*0401 [5]: −

EYRHTWDRHDEGAAQ [Peptide 380]
Binding to DRB1*0401 [5]: − | DRB1*0401 mice CD4+ (T cell response) [4, 7]: − | DRB1*0401 mice total SC (T cell response) [4, 8]: − | Binding to DRB1 *0401 ([1]; soluble DRB1*0401 molecules): −

GDDDVWTSGSDSDEE [Peptide 395]
Recognition by T cells in HLA context other than described [2]: recognized by T cells in a different HLA context than known before

GQNLKYQEFFWDAND [Peptide 505]
DRB1*0401 mice CD4+ (T cell response) [4, 7]: − | DRB1*0401 mice total SC (T cell response) [4, 8]: + | Binding to DRB1 *0401 ([1]; soluble DRB1*0401 molecules): −

GRLKAESTVAPEEDT [Peptide 454]
Binding to DRB1*0401 [3]: + | DRB1*0401 mice CD4+ (T cell response) [4, 7]: +/− | DRB1*0401 mice total SC (T cell response) [4, 8]: +/− | Binding to DRB1 *0401 ([1]; soluble DRB1*0401 molecules): +

GVMTRGRLKAESTVA [Peptide 449]
Binding to DRB1*0401 [3]: +/− | DRB1*0401 mice CD4+ (T cell response) [4, 7]: ++ | DRB1*0401 mice total SC (T cell response) [4, 8]: + | Binding to DRB1 *0401 ([1]; soluble DRB1*0401 molecules): +/−

GVSTANATVYMIDSVL [Peptide 1237]
DR4 binding [1, 6]: ++

HDEGAAQGDDDVWTS [Peptide 388]
Binding to DRB1*0401 [5]: −

HNPAVFTWPPWQAGI [Peptide 477]
Induction of IFN-gamma secretion in T cells / PBMC from CMV seropositive donors [2]: can induce functional, IFN-gamma secreting T cells in humans

HTWDRHDEGAAQGDD [Peptide 383]
Binding to DRB1*0401 [3]: +/− | DRB1*0401 mice CD4+ (T cell response) [4, 7]: − | DRB1*0401 mice total SC (T cell response) [4, 8]: − | Binding to DRB1 *0401 ([1]; soluble DRB1*0401 molecules): +/−

IDELKTNSSLLTSILTYHVV [Peptide 1235]
DR4 binding [1, 6]: −

IHNPAVFTWPPWQAG [Peptide 476]
Induction of IFN-gamma secretion in T cells / PBMC from CMV seropositive donors [2]: can induce functional, IFN-gamma secreting T cells in humans

ILVSQYTPDSTPCHR [Peptide 56]
Binding to DRB1*0401 [3]: ++ | DRB1*0401 mice CD4+ (T cell response) [4, 7]: + | DRB1*0401 mice total SC (T cell response) [4, 8]: ++ | Binding to DRB1 *0401 ([1]; soluble DRB1*0401 molecules): ++

KTPRVTGGGANAGAS [Peptide 416]
Recognition by T cells in HLA context other than described [2]: recognized by T cells in a different HLA context than known before

KYQEFFWDANDIYRI [Peptide 509]
DRB1*0401 mice CD4+ (T cell response) ([4]; mouse, in vivo): ++ | DRB1*0401 mice total SC (T cell response) ([4]; mouse, in vivo, sc): ++ | Binding to DRB1 *0401 [1]: −

LEYRHTWDRHDEGAA [Peptide 379]
Binding to DRB1*0401 [5]: −

LILVSQYTPDSTPCH [Peptide 55]
Binding to DRB1*0401 [3]: + | DRB1*0401 mice CD4+ (T cell response) [4, 7]: + | DRB1*0401 mice total SC (T cell response) [4, 8]: ++ | Binding to DRB1 *0401 ([1]; soluble DRB1*0401 molecules): +

LKAESTVAPEEDTDE [Peptide 456]
DRB1*0401 mice CD4+ (T cell response) [4, 7]: − | DRB1*0401 mice total SC (T cell response) [4, 8]: −

LLQRGPQYSEHPTFT [Peptide 356]
DRB1*0401 mice CD4+ (T cell response) [4, 7]: +/− | DRB1*0401 mice total SC (T cell response) [4, 8]: +/−

LQRGPQYSEHPTFTS [Peptide 357]
DRB1*0401 mice CD4+ (T cell response) ([4]; mouse, in vivo): +/− | DRB1*0401 mice total SC (T cell response) ([4]; mouse, in vivo, sc): +

MQVIGDQYVKVYLES [Peptide 216]
Induction of IFN-gamma secretion in T cells / PBMC from CMV seropositive donors [2]: can induce functional, IFN-gamma secreting T cells in humans

NFAGIEAAASAIQGNV [Peptide 1238]
DR4 binding [1, 6]: −

NFLLPDAQSIQAAAAG [Peptide 1241]
DR4 binding [1, 6]: ++

NLVPMVATV [reference compound]
Number of donors recognizing the epitope ([2]; HLA A2 donors): 9 out of 10 | Frequency in screen (number of refinding/number of donors' expressing the respective HLA type) [2]: 8/9

PAVFTWPPWQAGILA [Peptide 479]
Induction of IFN-gamma secretion in T cells / PBMC from CMV seropositive donors [2]: can induce functional, IFN-gamma secreting T cells in humans

PFMRPHERNGFTVLC [Peptide 262]
Recognition by T cells in HLA context other than described [2]: recognized by T cells in a different HLA context than known before

PTFTSQYRIQGKLEY [Peptide 367]
Binding to DRB1*0401 [5]: −

QGDDDVWTSGSDSDE [Peptide 394]
Recognition by T cells in HLA context other than described [2]: recognized by T cells in a different HLA context than known before

QGQNLKYQEFFWDAN [Peptide 504]
DRB1*0401 mice CD4+ (T cell response) [4, 7]: − | DRB1*0401 mice total SC (T cell response) [4, 8]: − | Binding to DRB1 *0401 ([1]; soluble DRB1*0401 molecules): −

QNLKYQEFFWDANDI [Peptide 506]
DRB1*0401 mice CD4+ (T cell response) [4, 7]: +/− | DRB1*0401 mice total SC (T cell response) [4, 8]: ++ | Induction of IFN-gamma secretion in T cells / PBMC from CMV seropositive donors [2]: can induce functional, IFN-gamma secreting T cells in humans | Binding to DRB1 *0401 ([1]; soluble DRB1*0401 molecules): −

QNQWKEPDVYYTSAF [Peptide 172]
Binding to DRB1*0401 [5]: −

QRGPQYSEHPTFTSQ [Peptide 358]
DRB1*0401 mice CD4+ (T cell response) ([4]; mouse, in vivo): +/− | DRB1*0401 mice total SC (T cell response) ([4]; mouse, in vivo, sc): ++

QYSEHPTFTSQYRIQ [Peptide 362]
DRB1*0401 mice CD4+ (T cell response) ([4]; mouse, in vivo): ++ | DRB1*0401 mice total SC (T cell response) ([4]; mouse, in vivo, sc): +

RHTWDRHDEGAAQGD [Peptide 382]
Binding to DRB1*0401 [5]: − | DRB1*0401 mice CD4+ (T cell response) [4, 7]: − | DRB1*0401 mice total SC (T cell response) [4, 8]: − | Binding to DRB1 *0401 ([1]; soluble DRB1*0401 molecules): −

RIFAELEGV
Frequency in screen (number of refinding/number of donors' expressing the respective HLA type) [2]: 1/9

RKTPRVTGGGAMAGA [Peptide 415]
Recognition by T cells in HLA context other than described [2]: recognized by T cells in a different HLA context than known before

RLKAESTVAPEEDTD [Peptide 455]
Binding to DRB1*0401 [5]: − | DRB1*0401 mice CD4+ (T cell response) [4, 7]: +/− | DRB1*0401 mice total SC (T cell response) [4, 8]: +/− | Binding to DRB1 *0401 ([1]; soluble DRB1*0401 molecules): +

RQQNQWKEPDVYYTS [Peptide 170]
Binding to DRB1*0401 [5]: −

SGVMTRGRLKAESTV [Peptide 448]
Binding to DRB1*0401 [5]: − | DRB1*0401 mice CD4+ (T cell response) [4, 7]: − | DRB1*0401 mice total SC (T cell response) [4, 8]: +/− | Binding to DRB1 *0401 ([1]; soluble DRB1*0401 molecules): −

SLILVSQYTPDSTPC [Peptide 54]
Binding to DRB1*0401 [5]: − | DRB1*0401 mice CD4+ (T cell response) [4, 7]: +/− | DRB1*0401 mice total SC (T cell response) [4, 8]: − | Binding to DRB1 *0401 ([1]; soluble DRB1*0401 molecules): −

STPCHRGDNQLQVQH [Peptide 65]
Binding to DRB1*0401 [5]: − | DRB1*0401 mice CD4+ (T cell response) [4, 7]: − | DRB1*0401 mice total SC (T cell response) [4, 8]: − | Binding to DRB1 *0401 ([1]; soluble DRB1*0401 molecules): −

TGSGAGIAQAAAGTV [Peptide 1236]
DR4 binding [1, 6]: +

TKMQVIGDQYVKVYL [Peptide 214]
Induction of IFN-gamma secretion in T cells / PBMC from CMV seropositive donors [2]: can induce functional, IFN-gamma secreting T cells in humans

TPRVTGGGAMAGAST [Peptide 417]
Recognition by T cells in HLA context other than described [2]: recognized by T cells in a different HLA context than known before

TRATKMQVIGDQYVK [Peptide 211]
Induction of IFN-gamma secretion in T cells / PBMC from CMV seropositive donors [2]: can induce functional, IFN-gamma secreting T cells in humans

VQGQNLKYQEFFWDA [Peptide 503]
Induction of IFN-gamma secretion in T cells / PBMC from CMV seropositive donors [2]: can induce functional, IFN-gamma secreting T cells in humans

VSDLKSSTAVIPGYPV [Peptide 1240]
DR4 binding [1, 6]: +

VTTERKTPRVTGGGA [Peptide 411]
Recognition by T cells in HLA context other than described [2]: recognized by T cells in a different HLA context than known before

WDRHDEGAAQGDDDV [Peptide 385]
Binding to DRB1*0401 [5]: − | DRB1*0401 mice CD4+ (T cell response) [4, 7]: − | DRB1*0401 mice total SC (T cell response) [4, 8]: − | Binding to DRB1 *0401 ([1]; soluble DRB1*0401 molecules): −

YPKYVKQNTLKLAT [HA306-318, reference compound]
DR4 binding [1]: ++

YQEFFWDANDIYRIF [Peptide 510]
Binding to DRB1*0401 [5]: − | DRB1*0401 mice CD4+ (T cell response) [4, 7]: ++ | DRB1*0401 mice total SC (T cell response) [4, 8]: ++ | Binding to DRB1 *0401 ([1]; soluble DRB1*0401 molecules): −

YRHTWDRHDEGAAQG [Peptide 381]
DRB1*0401 mice CD4+ (T cell response) [4, 7]: − | DRB1*0401 mice total SC (T cell response) [4, 8]: − | Binding to DRB1 *0401 ([1]; soluble DRB1*0401 molecules): −

YSEHPTFTSQYRIQG [Peptide 363]
DRB1*0401 mice CD4+ (T cell response) ([4]; mouse, in vivo): ++ | DRB1*0401 mice total SC (T cell response) ([4]; mouse, in vivo, sc): +

YTSAFVFPTKDVALR [Peptide 182]
DRB1*0401 mice CD4+ (T cell response) [4, 7]: +/− | DRB1*0401 mice total SC (T cell response) [4, 8]: +/−

YYTSAFVFPTKDVAL [Peptide 181]
DRB1*0401 mice CD4+ (T cell response) [4, 7]: +/− | DRB1*0401 mice total SC (T cell response) [4, 8]: + | Binding to DRB1 *0401 ([1]; soluble DRB1*0401 molecules): −
